Source: patent US4515980A, “Substituted aminobenzoates, their preparation and use” (Sterling Drug Inc., priority 1983, dated 1985)
Where two headings read alike, the source gives them in different places.

Columns and labels:
lipoxygenase = target: T1, lipoxygenase (Rattus norvegicus, UniProt P12527); assay: Inhibition of lipoxygenase derived from rat basophilic leukemia (RBL-1) cells, formation of products 5,12-di-HETE (L1) and 5-HETE (L2); type: biochemical
T1 construct: Single cell suspensions of RBL-1 cells are homogenized to obtain the microsomal fraction containing lipoxygenase and cyclooxygenase; endogenous in cells; host or cells: RBL-1 (rat basophilic leukemia) cells, homogenate / microsomal fraction
T1 sequence (P12527 1-673): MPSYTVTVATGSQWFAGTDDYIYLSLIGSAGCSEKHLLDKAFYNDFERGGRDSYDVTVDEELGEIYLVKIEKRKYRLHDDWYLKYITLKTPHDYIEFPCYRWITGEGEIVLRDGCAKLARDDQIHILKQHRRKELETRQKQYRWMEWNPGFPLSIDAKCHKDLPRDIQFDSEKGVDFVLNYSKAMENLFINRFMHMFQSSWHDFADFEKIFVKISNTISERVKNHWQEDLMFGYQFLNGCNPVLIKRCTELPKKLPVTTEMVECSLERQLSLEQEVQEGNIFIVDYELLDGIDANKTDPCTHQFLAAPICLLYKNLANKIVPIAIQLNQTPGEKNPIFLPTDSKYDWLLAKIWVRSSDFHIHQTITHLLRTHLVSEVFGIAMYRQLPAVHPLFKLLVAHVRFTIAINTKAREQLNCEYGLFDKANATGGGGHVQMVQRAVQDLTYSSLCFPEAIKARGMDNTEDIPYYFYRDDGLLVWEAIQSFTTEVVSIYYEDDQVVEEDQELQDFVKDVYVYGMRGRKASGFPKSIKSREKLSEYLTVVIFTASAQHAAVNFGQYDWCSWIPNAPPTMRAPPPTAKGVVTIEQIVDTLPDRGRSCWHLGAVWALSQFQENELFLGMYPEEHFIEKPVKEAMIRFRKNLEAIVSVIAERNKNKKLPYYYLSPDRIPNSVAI
Description: (§1) The primary screening test used is a determination of the inhibition of lipoxygenase and cyclooxygenase derived from rat basophilic leukemia (RBL-1) cells. The test was carried out according to the following procedure:
(§2) Single cell suspensions of RBL-1 cells are homogenized to obtain the microsomal fraction containing lipoxygenase and cyclooxygenase. Test compounds are added to the enzyme-containing homogenate for a 5 min preincubation period at 37° C. prior to the addition of ^14 C-arachidonic acid substrate. Following incubation at 37° C. for 15 min, the reaction is stopped by the addition of 2M formic acid and the enzyme-substrate products are extracted into chloroform. An aliquot of the extract is evaporated to dryness, reconstituted in ether to 1/10 original volume, spotted on thin layer chromatography plates and chromatographed. The peak areas of radioactivity representing the products are located by scanning the plates. The quantity of products formed is estimated by measuring the height of the radioactivity peaks observed on the chromatographic scans. Alternatively, the areas of radioactivity are scraped from the plate and the ^14 C quantitated by scintillation counting.

cyclooxygenase = target: T2, cyclooxygenase (Rattus norvegicus, UniProt Q63921); assay: Inhibition of cyclooxygenase derived from rat basophilic leukemia (RBL-1) cells, formation of product PDG2 (C1); type: biochemical; details: RBL-1 homogenate; for inhibition at 1 µM: dose of 1 μM, 5 min preincubation, 15 min incubation at 37° C, read-out: In vitro % Inhibition, C1 (cyclooxygenase product formation); for IC50: C1, PDG2
T2 construct: Single cell suspensions of RBL-1 cells are homogenized to obtain the microsomal fraction containing lipoxygenase and cyclooxygenase; endogenous in cells; host or cells: RBL-1 (rat basophilic leukemia) cells, homogenate / microsomal fraction
T2 sequence (Q63921 27-602): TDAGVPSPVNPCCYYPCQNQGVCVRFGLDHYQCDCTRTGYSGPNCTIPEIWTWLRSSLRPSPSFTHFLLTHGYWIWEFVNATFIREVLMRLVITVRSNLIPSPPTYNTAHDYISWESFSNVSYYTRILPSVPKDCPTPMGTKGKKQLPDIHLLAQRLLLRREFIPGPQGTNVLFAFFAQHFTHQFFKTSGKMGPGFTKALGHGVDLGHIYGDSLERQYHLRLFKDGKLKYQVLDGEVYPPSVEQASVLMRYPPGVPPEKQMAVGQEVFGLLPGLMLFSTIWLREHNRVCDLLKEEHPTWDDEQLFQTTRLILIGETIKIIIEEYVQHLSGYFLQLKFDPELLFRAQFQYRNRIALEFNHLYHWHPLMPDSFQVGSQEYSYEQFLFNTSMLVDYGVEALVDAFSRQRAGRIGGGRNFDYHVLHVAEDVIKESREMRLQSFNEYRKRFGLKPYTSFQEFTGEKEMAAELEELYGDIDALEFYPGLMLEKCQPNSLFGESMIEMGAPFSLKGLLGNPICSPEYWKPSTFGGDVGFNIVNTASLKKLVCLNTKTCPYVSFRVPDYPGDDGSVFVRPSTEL
Description: as §1, §2

[1] = system: STS-A component of immunologically induced bronchoconstriction; assay: Effect on the STS-A component of immunologically induced bronchoconstriction in guinea pigs; type: in vivo; details: 4 hrs., at 1 mg/kg orally, indomethacin + chlorpheniramine medicated, antigen challenge
Description: The test was carried out according to the following procedure:
Two weeks after immunization with egg albumin, guinea pigs are prepared for bronchoconstriction determination. One hour prior to antigen challenge, each animal is dosed orally with indomethacin and chlorpheniramine. Animals are anesthetized with sodium pentobarbital, the trachea cannulated and the animal artifically respired. Arachidonic acid is administered intravenously prior to antigen challenge. The resulting bronchoconstriction is recorded by the standard lung overflow procedure and the peak increase in intratracheal pressure (mm Hg) over a 10 minute observation period is recorded. Compounds are evaluated for their ability to prevent the increased intratracheal pressure in an experimental group of animals as compared to the medicated (indomethacin+chlorpheniramine+arachidonic acid) control group. The results are expressed in terms of percent inhibition or as ED50 values (efffective dose in 50% of the animals).

[2] = IC50, L1 (lipoxygenase product 5,12-di-HETE formation), L1, 5,12-di-HETE, RBL-1 homogenate
[3] = IC50, L2 (lipoxygenase product 5-HETE formation), L2, 5-HETE, RBL-1 homogenate
[4] = read-out: In vitro % Inhibition, L1 (lipoxygenase product 5,12-di-HETE formation)
[5] = read-out: In vitro % Inhibition, L2 (lipoxygenase product 5-HETE formation)

inhibition at 1 µM (lipoxygenase; L1, 5,12-di-HETE, dose of 1 μM, RBL-1 homogenate, 5 min preincubation, 15 min incubation at 37° C, read-out: In vitro % Inhibition, L1 (lipoxygenase product 5,12-di-HETE formation)) [%] | inhibition at 1 µM (lipoxygenase; L2, 5-HETE, dose of 1 μM, RBL-1 homogenate, 5 min preincubation, 15 min incubation at 37° C, read-out: In vitro % Inhibition, L2 (lipoxygenase product 5-HETE formation)) [%] | SMILES | inhibition at 1 µM (cyclooxygenase) [%] | In vivo Guinea Pig % inhib. (increased intratracheal pressure, bronchoconstriction) [1] [%] | IC50 (lipoxygenase; [2]) [nM] | IC50 (lipoxygenase; [3]) [nM] | inhibition at 1 µM (lipoxygenase; [4]) [%] | inhibition at 1 µM (lipoxygenase; [5]) [%] | IC50 (cyclooxygenase) [nM]
60 | 76 | CCOC(=O)c1ccccc1Nc1ccc(O)cc1C [Example 4c, Ethyl 2-(4-hydroxy-2-methylphenylamino)benzoate] | 0 |  |  |  |  |  | 
 |  | CCOC(=O)c1cc(OC)ccc1Nc1ccc(O)cc1 [Example 3d, Ethyl 2-(4-hydroxyphenylamino)-5-methoxybenzoate] | 18 | 42 | 110 | 100 | 90 | 91 | > 1000
 |  | CCOC(=O)c1ccccc1Nc1ccc(O)c(Cl)c1 [Example 5c, Ethyl 2-(3-chloro-4-hydroxyphenylamino)benzoate] | 26 |  | 670 | 300 | 90 | 99 | > 1000
 |  | CCOC(=O)c1ccccc1Nc1ccccc1O [Example 1d, Ethyl 2-(2-hydroxyphenylamino)benzoate] | 34 |  | 160 | 100 | 95 | 98 | 320
 |  | CCOC(=O)c1ccccc1Nc1ccc(O)cc1 [Example 2b, Ethyl 2-(4-hydroxyphenylamino)benzoate] | 19 | 38 | 340 | 250 | 77 | 93 | > 1000
